# Reference: patent US20240217930A1 (priority 2021, published 2024)
# Target: SARS-CoV-2 Mpro (Severe acute respiratory syndrome coronavirus 2, UniProt P0DTD1)
# Test: SARS-CoV-2 Mpro FRET-based enzyme assay
# Format: biochemical
# Details: 5 nM Mpro, 25 μM FRET substrate, 20 min preincubation at room temperature; mean n=2; read-out: SARS-CoV-2 Mpro enzyme pKi assay pKi (converted)
row,SMILES,Ki [nM]
1,"CC(C)C(=O)N[C@H](C(=O)N1C[C@H]2[C@@H]([C@H]1C(=O)NC(CC1CC1)C(=O)C(N)=O)C2(C)C)C(C)(C)C (stereo partly drawn) [Example 1, (1 R,2S,5S)—N-(4-Amino-1-cyclopropyl-3,4-dioxobutan-2-yl)-3-((S)-2-isobutyramido-3,3-dimethylbutanoyl)-6,6-dimethyl-3-azabicyclo[3.1.0]hexane-2-carboxamide]",15.8
2,"CC(C)[C@H](NC(=O)C1CC1)C(=O)N1C[C@H]2[C@@H]([C@H]1C(=O)NC(CC1CC1)C(=O)C(N)=O)C2(C)C (stereo partly drawn) [Example 2, (1 R,2S,5S)—N-[3-Amino-1-(cyclopropylmethyl)-2,3-dioxo-propyl]-3-[(2S)-2-(cyclopropanecarbonylamino)-3-methylbutanoyl]-6,6-dimethyl-3-azabicyclo[3.1.0]hexane-2-carboxamide]",50.1
3,"CC[C@@H](C)[C@H](NC(=O)C(C)C)C(=O)N1C[C@H]2[C@@H]([C@H]1C(=O)NC(CC1CC1)C(=O)C(N)=O)C2(C)C (stereo partly drawn) [Example 3, (1R,2S,5S)—N-(4-Amino-1-cyclopropyl-3,4-dioxobutan-2-yl)-3-(isobutyryl-L-alloisoleucyl)-6,6-dimethyl-3-azabicyclo[3.1.0]hexane-2-carboxamide]",79.4
4,"C=CC(=O)N[C@H](C(=O)N1C[C@H]2[C@@H]([C@H]1C(=O)NC(CC1CC1)C(=O)C(N)=O)C2(C)C)C(C)C (stereo partly drawn) [Example 4, (1 R,2S,5S)-3-(Acryloyl-L-valyl)-N-(4-amino-1-cyclopropyl-3,4-dioxobutan-2-yl)-6,6-dimethyl-3-azabicyclo[3.1.0]hexane-2-carboxamide]",50.1
5,"CC(C)C(=O)N[C@H](C(=O)N1C[C@H]2[C@@H]([C@H]1C(=O)NC(C[C@H]1C[C@@H]1C)C(=O)C(N)=O)C2(C)C)C(C)C (stereo partly drawn) [Example 5, (1 R,2S,5S)—N-(4-Amino-1-((1 R,2S)-2-methylcyclopropyl)-3,4-dioxobutan-2-yl)-3-(isobutyryl-L-valyl)-6,6-dimethyl-3-azabicyclo[3.1.0]hexane-2-carboxamide]",158
6,"CC(C)C(=O)N[C@@H](CC1CC1)C(=O)N1C[C@H]2[C@@H]([C@H]1C(=O)NC(CC1CC1)C(=O)C(N)=O)C2(C)C (stereo partly drawn) [Example 6, (1 R,2S,5S)—N-(4-Amino-1-cyclopropyl-3,4-dioxobutan-2-yl)-3-((S)-3-cyclopropyl-2-isobutyramidopropanoyl)-6,6-dimethyl-3-azabicyclo[3.1.0]hexane-2-carboxamide]",200
7,"CC(C)C(=O)N[C@H](C(=O)N1C[C@H]2[C@@H]([C@H]1C(=O)NC(CC1CC1)C(=O)C(N)=O)C2(C)C)C(C)C (stereo partly drawn) [Example 7, (1 R,2S,5S)—N-(4-Amino-1-cyclopropyl-3,4-dioxobutan-2-yl)-3-(isobutyryl-L-valyl)-6,6-dimethyl-3-azabicyclo[3.1.0]hexane-2-carboxamide]",200
8,"CC1(C)[C@@H]2[C@@H](C(=O)NC(CC3CC3)C(=O)C(N)=O)N(C(=O)[C@@H](NC(=O)C3CC3)C3CC3)C[C@@H]21 (stereo partly drawn) [Example 9, (1 R,2S,5S)—N-(4-Amino-1-cyclopropyl-3,4-dioxobutan-2-yl)-3-((S)-2-(cyclopropanecarboxamido)-2-cyclopropylacetyl)-6,6-dimethyl-3-azabicyclo[3.1.0]hexane-2-carboxamide]",316
9,"CC(C)C(=O)N[C@H](C(=O)N1C[C@H]2[C@@H]([C@H]1C(=O)NC(CC1CC1)C(=O)C(N)=O)C2(C)C)C1CC1 (stereo partly drawn) [Example 10, (1 R,2S,5S)—N-(4-Amino-1-cyclopropyl-3,4-dioxobutan-2-yl)-3-((S)-2-cyclopropyl-2-isobutyramidoacetyl)-6,6-dimethyl-3-azabicyclo[3.1.0]hexane-2-carboxamide]",316
10,"CC(C)C(=O)NC(C(=O)N1C[C@H]2[C@@H]([C@H]1C(=O)NC(CC1CC1)C(=O)C(N)=O)C2(C)C)C1COC1 (stereo partly drawn) [Example 13, (1 R,2S,5S)—N-(4-Amino-1-cyclopropyl-3,4-dioxobutan-2-yl)-3-(2-isobutyramido-2-(oxetan-3-yl)acetyl)-6,6-dimethyl-3-azabicyclo[3.1.0]hexane-2-carboxamide]",316
11,"CC(C)(C)[C@H](NC(=O)C1CC1)C(=O)N1C[C@H]2[C@@H]([C@H]1C(=O)NC(CC1CC1)C(=O)C(N)=O)C2(C)C (stereo partly drawn) [Example 14, (1 R,2S,5S)—N-(4-Amino-1-cyclopropyl-3,4-dioxobutan-2-yl)-3-((S)-2-(cyclopropanecarboxamido)-3,3-dimethylbutanoyl)-6,6-dimethyl-3-azabicyclo[3.1.0]hexane-2-carboxamide]",15.8
12,"C=CC(=O)N[C@H](C(=O)N1C[C@H]2[C@@H]([C@H]1C(=O)NC(CC1CC1)C(=O)C(N)=O)C2(C)C)C(C)(C)C (stereo partly drawn) [Example 15, (1 R,2S,5S)-3-((S)-2-Acrylamido-3,3-dimethylbutanoyl)-N-(4-amino-1-cyclopropyl-3,4-dioxobutan-2-yl)-6,6-dimethyl-3-azabicyclo[3.1.0]hexane-2-carboxamide]",3.98
13,"CC(C)(C)[C@H](NC(=O)C1CC1)C(=O)N1C[C@H]2[C@@H]([C@H]1C(=O)NC(CC1CC1)C(=O)C(=O)NCc1ccccc1)C2(C)C (stereo partly drawn) [Example 18, (1 R,2S,5S)—N-(4-(Benzylamino)-1-cyclopropyl-3,4-dioxobutan-2-yl)-3-((S)-2-(cyclopropanecarboxamido)-3,3-dimethylbutanoyl)-6,6-dimethyl-3-azabicyclo[3.1.0]hexane-2-carboxamide]",50.1
14,"CC(C)(C)[C@H](NC(=O)C1CC1)C(=O)N1C[C@H]2[C@@H]([C@H]1C(=O)NC(CC1CC1)C(=O)C(=O)NC1CC1)C2(C)C (stereo partly drawn) [Example 19, (1 R,2S,5S)-3-((S)-2-(Cyclopropanecarboxamido)-3,3-dimethylbutanoyl)-N-(1-cyclopropyl-4-(cyclopropylamino)-3,4-dioxobutan-2-yl)-6,6-dimethyl-3-azabicyclo[3.1.0]hexane-2-carboxamide]",50.1
15,"CNC(=O)C(=O)C(CC1CC1)NC(=O)[C@@H]1[C@@H]2[C@H](CN1C(=O)[C@@H](NC(=O)C(C)C)C(C)(C)C)C2(C)C (stereo partly drawn) [Example 22, (1 R,2S,5S)—N-(1-Cyclopropyl-4-(methylamino)-3,4-dioxobutan-2-yl)-3-((S)-2-isobutyramido-3,3-dimethylbutanoyl)-6,6-dimethyl-3-azabicyclo[3.1.0]hexane-2-carboxamide]",15.8
16,"CC(C)C(=O)N[C@H](C(=O)N1C[C@H]2[C@@H]([C@H]1C(=O)NC(CC1CC1)C(=O)C(=O)N(C)C)C2(C)C)C(C)(C)C (stereo partly drawn) [Example 23, (1 R,2S,5S)—N-(1-Cyclopropyl-4-(dimethylamino)-3,4-dioxobutan-2-yl)-3-((S)-2-isobutyramido-3,3-dimethylbutanoyl)-6,6-dimethyl-3-azabicyclo[3.1.0]hexane-2-carboxamide]",> 5010
17,"CC(C)C(=O)N[C@H](C(=O)N1C[C@H]2[C@@H]([C@H]1C(=O)NC(CC1CC1)C(=O)C(N)=O)C2(C)C)C1CCC1 (stereo partly drawn) [Example 25, (1 R,2S,5S)—N-(4-Amino-1-cyclopropyl-3,4-dioxobutan-2-yl)-3-((S)-2-cyclobutyl-2-isobutyramidoacetyl)-6,6-dimethyl-3-azabicyclo[3.1.0]hexane-2-carboxamide]",251
18,"CC(C)C(=O)N[C@H](C(=O)N1C[C@H]2[C@@H]([C@H]1C(=O)NC(C#N)CC1CC1)C2(C)C)C(C)(C)C (stereo partly drawn) [Example 27, (1 R,2S,5S)—N-(1-Cyano-2-cyclopropylethyl)-3-((S)-2-isobutyramido-3,3-dimethylbutanoyl)-6,6-dimethyl-3-azabicyclo[3.1.0]hexane-2-carboxamide]",> 5010
19,"CC(C)[C@H](NC(=O)C1CC1)C(=O)N1C[C@H]2[C@@H]([C@H]1C(=O)NC(CC1CC1)C(=O)C(=O)NC1CC1)C2(C)C (stereo partly drawn) [Example 29, (1 R,2S,5S)-3-((Cyclopropanecarbonyl)-L-valyl)-N-(1-cyclopropyl-4-(cyclopropylamino)-3,4-dioxobutan-2-yl)-6,6-dimethyl-3-azabicyclo[3.1.0]hexane-2-carboxamide]",251
20,"CC(C)C(=O)NC(C(=O)N1C[C@H]2[C@@H]([C@H]1C(=O)NC(CC1CC1)C(=O)C(N)=O)C2(C)C)C1CCOC1 (stereo partly drawn) [Example 30, (1 R,2S,5S)—N-(4-Amino-1-cyclopropyl-3,4-dioxobutan-2-yl)-3-(2-isobutyramido-2-(tetrahydrofuran-3-yl)acetyl)-6,6-dimethyl-3-azabicyclo[3.1.0]hexane-2-carboxamide]",158
21,"CC(C)C(=O)N[C@H](C(=O)N1C[C@H]2[C@@H]([C@H]1C(=O)NC(CC1CC1)C(=O)C(=O)N[C@H]1CC1(C)C)C2(C)C)C(C)(C)C (stereo partly drawn) [Example 31, (1 R,2S,5S)—N-(1-Cyclopropyl-4-(((S)-2,2-dimethylcyclopropyl)amino)-3,4-dioxobutan-2-yl)-3-((S)-2-isobutyramido-3,3-dimethylbutanoyl)-6,6-dimethyl-3-azabicyclo[3.1.0]hexane-2-carboxamide]",100
22,"CC(C)(C)[C@H](NC(=O)C(C(F)(F)F)C(F)(F)F)C(=O)N1C[C@H]2[C@@H]([C@H]1C(=O)NC(CC1CC1)C(=O)C(N)=O)C2(C)C (stereo partly drawn) [Example 33, (1 R,2S,5S)—N-(4-Amino-1-cyclopropyl-3,4-dioxobutan-2-yl)-3-((S)-3,3-dimethyl-2-(3,3,3-trifluoro-2-(trifluoromethyl)propanamido)butanoyl)-6,6-dimethyl-3-azabicyclo[3.1.0]hexane-2-carboxamide]",158
